Experimental data: paper PMC6925656 (Clinical pharmacology and therapeutics, 2019)
pIC50: −log10 of the molar value. Each block holds one compound with its values, some of them ahead of it.

Key:
human OCT1 [1] = target: T1, human OCT1 (Homo sapiens, UniProt O15245); test: Uptake into OCT1-expressing or nonexpressing Xenopus laevis oocytes
T1 sequence (O15245 1-554): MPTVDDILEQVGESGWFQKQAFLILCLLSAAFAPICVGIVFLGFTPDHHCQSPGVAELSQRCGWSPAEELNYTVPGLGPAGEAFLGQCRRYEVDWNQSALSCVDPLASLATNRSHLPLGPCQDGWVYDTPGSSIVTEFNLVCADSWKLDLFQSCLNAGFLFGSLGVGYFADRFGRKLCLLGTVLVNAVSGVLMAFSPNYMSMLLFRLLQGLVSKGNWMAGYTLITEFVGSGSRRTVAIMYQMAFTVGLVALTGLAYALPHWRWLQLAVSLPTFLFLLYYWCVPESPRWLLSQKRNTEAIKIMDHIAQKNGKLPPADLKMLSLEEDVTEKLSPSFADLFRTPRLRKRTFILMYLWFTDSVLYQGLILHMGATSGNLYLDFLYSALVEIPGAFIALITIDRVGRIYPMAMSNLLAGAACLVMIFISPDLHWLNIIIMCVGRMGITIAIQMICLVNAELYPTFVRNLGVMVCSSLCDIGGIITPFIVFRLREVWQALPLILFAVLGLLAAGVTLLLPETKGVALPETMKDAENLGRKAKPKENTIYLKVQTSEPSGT

p38α = details: cited from earlier work
HeLa cells = test: Sorafenib uptake and membrane binding in HeLa cells; type: in vitro ADME; details: for Interference with non-specific membrane binding of sorafenib: isolated membrane fraction
human OCT1 [2] = target: T1, human OCT1; test: Uptake into HEK293 cells expressing human OCT1
[3] = cited from earlier work
HepG2 cells = test: Uptake into HepG2 liver cancer cells; type: in vitro ADME, human
mOATP2B1 = target: T2, mOATP2B1 (Mus musculus, UniProt Q8BXB6); test: Sorafenib uptake by HEK cells overexpressing mOATP2B1; type: in vitro ADME; details: Figure S4
T2 sequence (Q8BXB6 1-683): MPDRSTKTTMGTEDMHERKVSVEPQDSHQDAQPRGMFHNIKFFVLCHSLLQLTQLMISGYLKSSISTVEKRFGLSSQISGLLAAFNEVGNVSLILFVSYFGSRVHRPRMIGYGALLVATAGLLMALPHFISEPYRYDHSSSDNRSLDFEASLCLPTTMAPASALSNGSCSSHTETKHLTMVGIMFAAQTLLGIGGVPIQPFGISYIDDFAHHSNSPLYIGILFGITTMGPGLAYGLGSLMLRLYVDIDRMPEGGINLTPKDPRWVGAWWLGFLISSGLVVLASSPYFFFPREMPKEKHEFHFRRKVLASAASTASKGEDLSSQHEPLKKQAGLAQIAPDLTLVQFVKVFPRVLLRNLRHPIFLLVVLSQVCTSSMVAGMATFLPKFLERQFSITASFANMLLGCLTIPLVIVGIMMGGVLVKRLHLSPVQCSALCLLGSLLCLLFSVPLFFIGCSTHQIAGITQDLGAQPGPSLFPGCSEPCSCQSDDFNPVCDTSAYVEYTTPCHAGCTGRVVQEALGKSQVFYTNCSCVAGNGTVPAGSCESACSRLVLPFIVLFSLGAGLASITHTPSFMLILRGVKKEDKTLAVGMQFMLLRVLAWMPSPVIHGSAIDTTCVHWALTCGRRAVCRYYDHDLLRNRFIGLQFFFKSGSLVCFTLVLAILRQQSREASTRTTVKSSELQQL

Huh7 cells = test: Uptake into Huh7 liver cancer cells; type: in vitro ADME, human
p38α (MAPK14) = p38α (MAPK14) (Homo sapiens, UniProt Q16539); details: live HEK293 cells, 60 min; BIRB796 5 nM, sorafenib 5 μM; DMSO 44.3 °C
p38α (MAPK14), sequence (Q16539 whole entry): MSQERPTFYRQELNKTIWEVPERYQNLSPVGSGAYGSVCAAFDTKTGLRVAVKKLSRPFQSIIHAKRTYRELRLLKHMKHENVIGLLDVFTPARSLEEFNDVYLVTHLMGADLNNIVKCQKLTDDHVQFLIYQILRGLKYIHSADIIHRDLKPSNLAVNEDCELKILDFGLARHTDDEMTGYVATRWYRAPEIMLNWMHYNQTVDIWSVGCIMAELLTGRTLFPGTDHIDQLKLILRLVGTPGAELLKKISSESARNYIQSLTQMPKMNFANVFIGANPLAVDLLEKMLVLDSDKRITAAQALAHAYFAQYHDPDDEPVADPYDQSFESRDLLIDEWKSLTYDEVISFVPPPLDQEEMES

human OCT3 = target: T3, human OCT3 (Homo sapiens, UniProt O75751); test: Sorafenib transport in HEK293 cells overexpressing human OCT3; type: in vitro ADME; details: HEK293 cells overexpressing human OCT3, Figure S1
T3 sequence (O75751 1-556): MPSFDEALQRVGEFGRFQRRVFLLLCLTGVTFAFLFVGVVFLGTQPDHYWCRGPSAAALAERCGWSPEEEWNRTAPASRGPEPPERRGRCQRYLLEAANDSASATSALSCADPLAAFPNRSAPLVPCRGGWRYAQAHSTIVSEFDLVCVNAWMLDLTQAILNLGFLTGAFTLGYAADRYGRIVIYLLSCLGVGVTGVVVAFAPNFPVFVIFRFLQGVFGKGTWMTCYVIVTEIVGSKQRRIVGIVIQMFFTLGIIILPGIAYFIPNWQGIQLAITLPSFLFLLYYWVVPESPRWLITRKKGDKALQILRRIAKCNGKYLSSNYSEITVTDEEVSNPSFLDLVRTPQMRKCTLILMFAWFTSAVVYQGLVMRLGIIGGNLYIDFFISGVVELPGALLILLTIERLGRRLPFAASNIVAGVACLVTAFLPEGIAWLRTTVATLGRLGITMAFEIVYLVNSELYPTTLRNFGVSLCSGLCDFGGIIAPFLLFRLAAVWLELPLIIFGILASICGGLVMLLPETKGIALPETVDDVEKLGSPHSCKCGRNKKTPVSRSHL

OCT1 [4] = details: cited from earlier work
human OCT2 = human OCT2 (Homo sapiens, UniProt O15244); details: HEK293 cells overexpressing human OCT2, Figure S1
human OCT2, sequence (O15244 whole entry): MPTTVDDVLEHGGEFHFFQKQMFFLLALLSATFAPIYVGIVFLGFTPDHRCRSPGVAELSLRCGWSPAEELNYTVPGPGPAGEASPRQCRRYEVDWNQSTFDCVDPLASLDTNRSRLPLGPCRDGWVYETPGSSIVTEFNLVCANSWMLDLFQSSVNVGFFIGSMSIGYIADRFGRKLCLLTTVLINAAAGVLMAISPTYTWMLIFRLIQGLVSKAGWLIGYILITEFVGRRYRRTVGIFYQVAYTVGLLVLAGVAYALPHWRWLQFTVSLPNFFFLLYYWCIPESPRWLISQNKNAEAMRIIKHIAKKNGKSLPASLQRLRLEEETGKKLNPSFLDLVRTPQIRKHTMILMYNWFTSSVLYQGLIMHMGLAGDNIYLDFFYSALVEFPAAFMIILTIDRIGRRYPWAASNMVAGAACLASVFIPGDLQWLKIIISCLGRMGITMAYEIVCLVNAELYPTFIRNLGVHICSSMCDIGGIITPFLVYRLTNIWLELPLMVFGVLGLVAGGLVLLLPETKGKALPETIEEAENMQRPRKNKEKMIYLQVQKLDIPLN

Oct1 [5] = test: Pharmacokinetics in Oct1-deficient versus wild-type mice; details: for Pharmacokinetic parameters, Oct1-deficient vs wild-type mice: sorafenib single oral dose 10 mg/kg, plasma
hOATP2B1 = target: T4, hOATP2B1 (Homo sapiens, UniProt O94956); test: Sorafenib uptake by HEK cells overexpressing hOATP2B1; type: in vitro ADME; details: Figure S4
T4 sequence (O94956 1-709): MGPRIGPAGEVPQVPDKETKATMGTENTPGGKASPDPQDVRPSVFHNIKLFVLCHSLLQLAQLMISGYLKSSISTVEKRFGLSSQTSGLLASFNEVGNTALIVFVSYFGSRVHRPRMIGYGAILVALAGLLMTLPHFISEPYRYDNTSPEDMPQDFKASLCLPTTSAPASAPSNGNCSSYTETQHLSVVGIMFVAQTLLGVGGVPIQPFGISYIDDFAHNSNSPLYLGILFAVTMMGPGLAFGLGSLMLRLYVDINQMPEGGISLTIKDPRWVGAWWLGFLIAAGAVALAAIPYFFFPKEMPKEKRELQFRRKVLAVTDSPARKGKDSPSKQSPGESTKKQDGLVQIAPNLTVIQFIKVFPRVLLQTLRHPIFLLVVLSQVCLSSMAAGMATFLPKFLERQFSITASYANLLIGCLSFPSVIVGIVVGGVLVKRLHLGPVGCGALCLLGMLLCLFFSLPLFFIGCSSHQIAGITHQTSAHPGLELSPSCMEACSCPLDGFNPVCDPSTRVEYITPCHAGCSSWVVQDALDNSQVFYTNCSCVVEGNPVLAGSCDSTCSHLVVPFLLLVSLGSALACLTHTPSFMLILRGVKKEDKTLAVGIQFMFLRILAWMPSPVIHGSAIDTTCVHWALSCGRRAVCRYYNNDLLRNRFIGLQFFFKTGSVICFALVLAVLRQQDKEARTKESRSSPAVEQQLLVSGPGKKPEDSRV

OATP2B1 = target: T5, OATP2B1 (Mus musculus, UniProt Q8BXB6); test: Sorafenib pharmacokinetics in OATP2B1-deficient mice; type: in vivo; details: Figure S4
T5 sequence (Q8BXB6 1-683): T2 sequence (Q8BXB6 1-683)

Compound: C[n+]1ccc(-c2ccccc2)cc1 [MPP]
Increase of MPP uptake, OCT1 present vs absent (human OCT1 [1]; MPP 1 μM, 20 min): 13 fold | Uptake of MPP into oocytes in the presence of OCT1 (human OCT1 [1]; MPP 1 μM, 20 min, OCT1-expressing oocytes): 2.1 pmol/oocyte/20 min | Uptake of MPP into oocytes in the absence of OCT1 (human OCT1 [1]; MPP 1 μM, 20 min, nonexpressing oocytes): 0.16 pmol/oocyte/20 min | Effect of excess MPP on OCT1-mediated MPP uptake (human OCT1 [1]; […] MPP as inhibitor, 1 μM MPP as substrate): completely blocked

Compound: CNC(=O)c1cc(Oc2ccc(NC(=O)Nc3ccc(Cl)c(C(F)(F)F)c3)cc2)ccn1 [sorafenib]
pIC50 (p38α): 7.42 | Apparent cellular uptake of sorafenib (HeLa cells; HeLa cells, sorafenib 0.2 μM, 10-min incubation): > 800 pmol/mg protein | Non-specific binding to cell membranes, share of total cell-associated drug (HeLa cells; confirms earlier observation of ref 25): up to 70% | Sorafenib uptake, HEK293-OCT1 vs HEK293-VC cells (human OCT1 [2]; sorafenib 0.2 μM, 10 min): no difference | Sorafenib transport at 4 °C compared with 37 °C (human OCT1 [2]; sorafenib 7.5 μM, HEK293 cells, independently of OCT1): reduced | Time at which sorafenib uptake reaches a plateau (human OCT1 [2]; sorafenib 7.5 μM, both HEK293-OCT1 and HEK293-VC cells): about 10 min | Fraction of dose found in urine [3]: About 19% | Characteristics of intracellular accumulation of sorafenib (HepG2 cells; HepG2): saturable, increased over time, and was found to be temperature-dependent | Sorafenib uptake, HEK-VC vs mOATP2B1-overexpressing HEK cells (mOATP2B1): did not detect a different sorafenib uptake | Characteristics of intracellular accumulation of sorafenib (Huh7 cells; Huh7): saturable, increased over time, and was found to be temperature-dependent | Apparent aggregation temperature of p38α (p38α (MAPK14)): 54.5 °C | Transport of sorafenib by OCT3 (human OCT3): do not transport sorafenib | Sorafenib uptake, OCT1-expressing vs nonexpressing oocytes (human OCT1 [1]; sorafenib 2 μM, 20 min, absence or presence of MPP […]): not different | Inhibition of the transport of known OCT1 substrates (OCT1 [4]): poor inhibitor | Transport of sorafenib by OCT2 (human OCT2): do not transport sorafenib | Liver concentrations, Oct1-deficient vs wild-type mice (Oct1 [5]; sorafenib 10 mg/kg oral, 7.5 h): no significant differences | Pharmacokinetic parameters, Oct1-deficient vs wild-type mice (Oct1 [5]): minimal difference | Sorafenib uptake, HEK-VC vs hOATP2B1-overexpressing HEK cells (hOATP2B1): did not detect a different sorafenib uptake | Effect of OATP2B1 deficiency in mice on sorafenib pharmacokinetics (OATP2B1): did not detect

Compound: CNC(=O)c1cc(Oc2ccc(NC(=O)Nc3ccc(Cl)c(C(F)(F)F)c3)cc2)cc[n+]1[O-] [sorafenib-N-oxide]
Transport of sorafenib-N-oxide by OCT1 (human OCT1 [2]; 1 μM, HEK293 cells expressing VC or OCT1, time-dependent uptake): not transported by OCT1 | Hepatic levels (Oct1 [5]; sorafenib 10 mg/kg oral, 7.5 h, data not shown): below the lower limit of quantification | Pharmacokinetic parameters, Oct1-deficient vs wild-type mice (Oct1 [5]): minimal difference

Compound: CC[N+](CC)(CC)CC [TEA]
Increase of TEA uptake in HEK293-OCT1 vs HEK293-VC cells (human OCT1 [2]; TEA 100 μM, 10 min): 23.5±1.2 fold | TEA uptake compared to HEK293-OCT1 cells (HepG2 cells; HepG2, TEA 100 μM, 10 min): did not take up appreciable levels | TEA uptake compared to HEK293-OCT1 cells (Huh7 cells; Huh7, TEA 100 μM, 10 min): did not take up appreciable levels

Compound: cyclosporin A
Interference with non-specific membrane binding of sorafenib (HeLa cells; HeLa cells): neither inhibitor interfered

Effect of inhibitor on sorafenib uptake in HEK293-OCT1 and HEK293-VC cells (human OCT1 [2]; decynium22 5 μM, sorafenib 0.2 μM, 10 min): decreased sorafenib uptake | Effect of inhibitor on TEA uptake in OCT1 transfectants (human OCT1 [2]; probe substrate TEA, OCT1-transfected HEK293 cells): almost completely abolished
Compound: CCN1/C(=C/c2ccc3ccccc3[n+]2CC)C=Cc2ccccc21.[I-] [decynium22]
Interference with non-specific membrane binding of sorafenib (HeLa cells; HeLa cells): neither inhibitor interfered
